Measurements: publication PMC6071539 (Theranostics, 2018)

Experiments:
Hep 3B = test: In vitro cytotoxicity, MTT assay, Hep 3B; type: cell-based; conditions: Homo sapiens, Hep3B, 72 h, read-out: IC50 ± SD
BEL-7402 = test: In vitro cytotoxicity, MTT assay, BEL-7402; type: cell-based; conditions: Homo sapiens, Bel-7402, 72 h, read-out: IC50 ± SD
Hep 3B cells = test: Cell proliferation by EdU incorporation; type: cell-based, human; conditions: 2 μM SN38 equivalent, 24 h
human HCC PDX tumors = test: Antitumor activity in human HCC PDX tumor model; type: in vivo, Balb/c nude mice; conditions: i.v. x3
[1] = Bloody diarrhea and intestinal damage study; type: in vivo, Balb/c mice
[2] = clinical; cited from earlier work
carboxylesterases = conditions: in the body, background statement; cited from earlier work
[3] = Pharmacokinetics after single i.v. injection; conditions: Sprague-Dawley, rat, in vivo, iv, 12 mg/kg
advanced HCC = conditions: patients with advanced HCC; cited from earlier work
[4] = Drug loading and encapsulation efficiency by RP-HPLC; type: physicochemical; conditions: PEG5k-PLA8k NPs, matrices/SN38 feed weight ratio 19:1, n = 3

AUC(0-inf) [3]	AUC(0-t) [3]	Cmax [3]	EE (encapsulation efficiency) [4]	Compound	IC50 (Hep 3B)	IC50 (BEL-7402)	Effect on proliferation (EdU incorporation) (Hep 3B cells)	Antitumor efficacy (human HCC PDX tumors)	Large intestine histology (H&E) ([1]; day 9, healthy Balb/c mice)	Onset of bloody diarrhea ([1]; healthy Balb/c mice, CPT-11 22.5 mg/kg i.v. x3)	Incidence of grade 3 or 4 diarrhea [2]	Enzymatic conversion to SN38, share of dosed CPT-11 (carboxylesterases)	Extension of median overall survival compared with a placebo (advanced HCC)
68900 ng·h/mL	67600 ng·h/mL	23800 ng/mL		CCc1c2c(nc3ccc(OC(=O)N4CCC(N5CCCCC5)CC4)cc13)-c1cc3c(c(=O)n1C2)COC(=O)[C@]3(O)CC [CPT-11, irinotecan]	49.3 ± 3.3 µM	42 ± 2.06 µM	negligible effect	moderate efficacy	destruction of these tissues by eliminating the glands and causing diffuse mucosal damage	2 days	31%	less than 8%	
				CNC(=O)c1cc(Oc2ccc(NC(=O)Nc3ccc(Cl)c(C(F)(F)F)c3)cc2)ccn1 [sorafenib]									2.8 months
			< 5%	CCc1c2c(nc3ccc(O)cc13)-c1cc3c(c(=O)n1C2)COC(=O)[C@]3(O)CC [SN38, 7-ethyl-10-hydroxycamptothecin]	7.74 ± 1.18 µM	2.76 ± 0.16 µM							
